Measurements reported in patent US6599936B1, “Anti-sebum skin care cosmetic compositions containing branched esters” (Unilever Home & Personal Care USA division of Conopco, Inc., priority 1999, dated 2003).
Read-outs that look alike come from different tables or passages of the source.

Assays:
Type in all cases: cell-based
human sebocytes = experiment: Sebocyte assay: 14C-acetate label remaining in sebocytes (sebum suppression in vitro); settings: for inhibition at 0.001 %: 0.001% test agent; for inhibition at 0.01 %: 0.01% test agent; for sebum suppression, result in words: conclusion drawn from Tables 1-5
Protocol: Secondary cultures of human sebocytes obtained from an adult […] were grown in 48-well or 96-well tissue culture plates (Costar Corp.; Cambridge, Mass.) until three days post-confluence. Sebocyte growth medium consisted of Clonetics Keratinocyte Basal Medium (KBM) supplemented With 14 μg/ml bovine pituitary extract, 0.4 μ/ml hydrocortisone, 5 μ/ml insulin, 10ng/ml epidermal growth factor, 1.2×10^−10 M cholera toxin, 100 units/ml penicillin, and 100 μg/ml streptomycin. All cultures were incubated at 37° C. in the presence of 7.5% CO2. Medium was changed three times per week.
On the day of experimentation, the growth medium was removed and the sebocytes washed three times with sterile Dulbecco's Modified Eagle Medium (DMEM; phenol red free). Fresh DMEM was added to each sample (triplicates) with 1-5 microliter of test agent solubilized in ethanol. Controls consisted of addition of ethanol alone. Each plate was returned to the incubator for 20 hours followed by the addition of ^14C-acetate buffer (5 mM final concentration, 56 mCi/mmol specific activity). Sebocytes were returned to the incubator for four hours afterwhich each culture was rinsed three times with phosphate buffered saline to remove unbound label. Radioactive label remaining in the sebocytes was harvested and counted using a Beckman scintillation counter. Statistical significance (p value) was calculated using student's t-test. Phenol Red, a known sebum suppressive agent, was employed as a positive control.

[1] = test system: Neonatal human dermal fibroblasts; experiment: Procollagen I production by fibroblasts, slot blot
Protocol: Neonatal human dermal fibroblasts were purchased from Clonetics Corp., San Diego, Calif. All materials for cell culture were purchased from Life Technologies, NY and used in passages 5-10. Cells were seeded at a density of approximately 7,500/well in the inner 48 wells of a 96-well plate in a medium containing DMEM (Dulbecco's Modified Eagle's Medium), high-glucose supplemented with 2 mM L-glutamine, 10% fetal bovine serum, and antibiotic and antimycotic solutions). Cells were then grown to confluence for 2 days. At confluence, the medium was removed and cells were washed with serum-free DMEM, and each well dosed with 200 μl of a solution of a test compound in serum-free DMEM. Each dosing was replicated in the total of six wells. […] After 24 hours, the test compound solution or the control solution was removed and cells redosed with 100 μl of a solution of a test compound in serum-free DMEM. After 24 hours, the test compound solution or the control solution was removed and stored over the weekend at 4° C. with protease inhibitor (Aprotinin from Sigma) in a ratio of aprotinin to water of 1:200. The test compound solution was then diluted in DMEM (approximately 20 μl sample in 200 μl DMEM).
Nitrocellulose membrane and 3 sheets of filter paper were soaked in TRIS buffered saline (TBS, pH 7.3.). BioRad slot blot apparatus (BioRad Labs, CA) was set up with filter paper on bottom, membrane on top, tightened. […] TBS was added per well. Vacuum was used to suck wells through membrane. The diluted test compound solution or control was vortexed, then 100 μl was loaded per well and gravity dried. Procollagen from the test solution was bound to the membrane at this point in the procedure. Membrane was removed from the apparatus, excess cut off, and bottom right corner notched for orientation. The membrane was placed in blocking solution (5% milk powder in Dulbecco's phosphate buffered saline) overnight at 4° C., with shaking. The membrane was then incubated for 1.5 hrs at room temperature with 1.5 mL Rat Anti-Human Procollagen Amino-Terminal Ab (Chemicon MAB1912) in TBS with 0.1% BSA (ratio of antibody to buffer/BSA was 1:100) in a sealed bag with shaking. The membrane was then removed; washed 3 times for 5 minutes in TBS/0.1% Tween. The membrane was then incubated for 1 hour at room temperature in 2 mL of Biotinylated Anti-Rat Peroxidase-Conjugated Ab (Vector Labs) in TBS with 0.1% BSA (ratio of antibody to buffer/BSA was 1:1000) in a sealed bag with shaking.
The membrane was washed 3 times for 5 minutes in TBS/0.1%Tween. 3 mL PBS was incubated with 30 μl each of solutions A and B from Vectastain Kit for 30 minutes. The membrane was placed in the resulting solution for 30 minutes in a sealed bag with shaking. The membrane was then removed and washed twice for 5 minutes in TBS/0.1% Tween. The membrane was then stained using the following solution:
12.5 mg 3-amino 9-ethyl carbazole (Sigma)
3.125 (approximately) mL DMF (N,N-dimethylformamide, from Sigma)
The membrane was stained until color developed and the reaction stopped with 2 washes for 10 minutes in tap water. A transparency of the blot was prepared using a color copier. Blot was scanned on Bio-Rad GS-700 Image Analysis densitometer and volume (OD*mm^2) of color/slot determined using molecular analysis software. Fold increase was calculated as a ratio of densitometer reading for cells treated with a test compound over control.

[2] = test system: Neonatal human dermal fibroblasts; experiment: Glycosaminoglycan synthesis by fibroblasts, Alcian Blue dot blot; settings: Table 7, glycosaminoglycans
Protocol: Neonatal human dermal fibroblasts were seeded at a density of approximately 50,000/well in a 12-well plate in a medium containing DMEM (high glucose supplemented with 2 mM L-glutamine, 10% fetal bovine serum, antibiotic and antimycotic solutions). Cells were then grown to confluence for 2 days. At confluence, each well was rinsed in serum-free DMEM and the cells dosed with test compounds (in triplicate) in 750 μL of serum-free DMEM. After 24 hours, this medium was aspirated and the treatment step repeated. After a second 24-hour period, this medium, containing the soluble GAGs, was collected and frozen until analysis.
A positively-charged Zeta Probe membrane was soaked in sterile water and placed into the Dot-Blot Apparatus (both Bio-Rad Labs, Hercules, Calif.). 100 μL of water was applied to each well and pulled through using a vacuum. After thawing, 100 μL of test solution samples or standards (Hyaluronic acid or Chondroitin Sulfate from bovine trachea, Sigma, St. Louis, Mo.) was applied to the membrane and allowed to gravity filter (about 1.5-2 hours). GAGs were now bound to membrane. The membrane was blocked in 3% w/v fatty acid free bovine serum albumin (Sigma) in water for one hour. A dye solution of 0.5% w/v Alcian Blue dye (ICN Biochemicals, Cleveland, Ohio.) in 3% acetic acid, pH approximately 2.3, was made. The membrane was washed twice in distilled water and then stained in the dye solution on a rotary shaker for 15 minutes. The dye was poured off and the membrane destained twice for 15 minutes each time in 3% acetic acid. The membrane was rinsed in water and left to dry overnight. The blot was scanned on Bio-Rad GS-700 Image Analysis Densitometer and volume (OD*mm^2) of color/slot determined using molecular analyst software. Fold increase over control was calculated as a ratio of densitometer reading for cells treated with a test compound over control.

[3] = Homo sapiens, 20 h, Table 3A, 20 hour incubation, 96 well plate, read-out: % Reduction
[4] = Table 6B, 0.0046% test compound
[5] = Homo sapiens, 0.5 h, Table 4, 30 minute incubation, 48 well plate, read-out: % Reduction
[6] = Table 6B, positive control, concentration not given
[7] = positive control, concentration not given

## CCCCCCCCCCCCCC(=O)OC(C)C [Isopropyl Myristate, Isopropyl myristate]
Human sebocytes; [3]
  inhibition at 0.001 %: -6.3%
  inhibition at 0.01 %: 4%
Human sebocytes
  sebum suppression, result in words: not an effective sebum suppressor

## CC(C)CCCCCCCCCCOC(=O)c1ccccc1 [Isotridecyl Benzoate]
Human sebocytes; Homo sapiens, 20 h, Table 5, 0.000039% test agent, 20 hour incubation, 48 well plate, read-out: % Reduction
  inhibition at 3.9e-05 %: 36.3%
Human sebocytes; Homo sapiens, 20 h, Table 5, 0.00039% test agent, 20 hour incubation, 48 well plate, read-out: % Reduction
  inhibition at 0.00039 %: 52.2%
Human sebocytes; Homo sapiens, 20 h, Table 5, 0.0039% test agent, 20 hour incubation, 48 well plate, read-out: % Reduction
  inhibition at 0.0039 %: 41.8%
[1]; Table 6B, 0.003% test compound
  Average OD Reading: 2.534
  Fold increase over control: 1.3 fold
[1]; Table 6B, 0.030% test compound
  Average OD Reading: 2.669
  Fold increase over control: 1.4 fold
[2]; 0.003% test compound
  Average OD Reading: 0.22
  Fold increase over control: 0.8 fold
[2]; 0.03% test compound
  Average OD Reading: 0.38
  Fold increase over control: 1.5 fold

## CCCC(=O)OCCCCCCCCCCC(C)C [Isotridecyl Butyrate]
Human sebocytes; Homo sapiens, 20 h, Table 3C, 0.00027% test agent, 20 hour incubation, 48 well plate, read-out: % Reduction
  inhibition at 0.00027 %: 4.1%
Human sebocytes; Homo sapiens, 20 h, Table 3C, 0.0027% test agent, 20 hour incubation, 48 well plate, read-out: % Reduction
  inhibition at 0.0027 %: 17.2%
Human sebocytes
  sebum suppression, result in words: not effective sebum suppressive agents

## CCCCCCCCCC(=O)OCCCCCCCCCCC(C)C [Isotridecyl Decanoate]
Human sebocytes
  sebum suppression, result in words: not effective sebum suppressive agents

## CCCCC/C=C\C/C=C\CCCCCCCC(=O)OCCCCCCCCCCC(C)C [Isotridecyl Linoleate]
Human sebocytes; Homo sapiens, 20 h, Table 5, 0.000046% test agent, 20 hour incubation, 48 well plate, read-out: % Reduction
  inhibition at 4.6e-05 %: 57.3%
Human sebocytes; Homo sapiens, 20 h, Table 5, 0.00046% test agent, 20 hour incubation, 48 well plate, read-out: % Reduction
  inhibition at 0.00046 %: 50.9%
Human sebocytes; Homo sapiens, 20 h, Table 5, 0.0046% test agent, 20 hour incubation, 48 well plate, read-out: % Reduction
  inhibition at 0.0046 %: 44.9%
[1]; [4]
  Average OD Reading: 2.346
  Fold increase over control: 1.2 fold
[1]; Table 6B, 0.046% test compound
  Average OD Reading: 2.4585
  Fold increase over control: 1.3 fold
[2]; 0.0046% test compound
  Average OD Reading: 0.40
  Fold increase over control: 1.5 fold
[2]; 0.046% test compound
  Average OD Reading: 0.29
  Fold increase over control: 1.1 fold

## CCCCCCCCC(=O)OCCCCCCCCCCC(C)C [Isotridecyl Nonanoate]
Human sebocytes; Homo sapiens, 20 h, Table 3B, 20 hour incubation, 48 well plate, read-out: % Reduction
  inhibition at 0.001 %: 0.7%
Human sebocytes; Homo sapiens, 20 h, Table 3B, 0.1% test agent, 20 hour incubation, 48 well plate, read-out: % Reduction
  inhibition at 0.1 %: 0.8%
Human sebocytes
  sebum suppression, result in words: not effective sebum suppressive agents

## CC(C)CCCCCCCCCCOC(=O)c1ccccc1O [Isotridecyl salicylate]
Human sebocytes; Homo sapiens, 0.5 h, Table 4, 0.005% test agent, 30 minute incubation, 48 well plate, read-out: % Reduction
  inhibition at 0.005 %: 24.6%
Human sebocytes; [5]
  inhibition at 0.01 %: 48.9%
Human sebocytes
  sebum suppression, result in words: effective in suppressing sebum

## O=S1(=O)OC(c2ccc(O)cc2)(c2ccc(O)cc2)c2ccccc21 [Phenol Red]
Human sebocytes; Homo sapiens, 20 h, Table 1, 20 hour incubation, 48 well plate, read-out: % Reduction
  inhibition at 0.001 %: 19.6%
Human sebocytes; [3]
  inhibition at 0.001 %: 14%
  inhibition at 0.01 %: 71.2%

## CCCCCCCCCCCCCOC(=O)c1ccccc1O [Straight Chain TDS, tridecyl salicylate]
Human sebocytes; [5]
  inhibition at 0.01 %: 1.3%

## TGF-b
[1]; Table 6A, test compound 0.01%, densitometer volume (OD*mm^2)
  Average OD Reading: 6.787
[1]; Table 6A, test compound 0.01%, ratio of densitometer reading over control
  Fold increase over control: 1.9 fold
[1]; [6]
  Average OD Reading: 4.099
  Fold increase over control: 2.1 fold
[2]; [7]
  Average OD Reading: 0.86
  Fold increase over control: 3.3 fold
